# Results: patent publication US20140023657A1, “IN VITRO METHOD FOR IDENTIFYING COMPOUNDS FOR CANCER THERAPY” (CONSEJO SUPERIOR DE INVESTIGACIONES CIENTIFICAS, priority 2005, published 2014)
# Like-named read-outs stand apart in the source and are kept apart here.
# Assays:
# [1] = molecular target: T1, recombinant human choline kinase alpha (Homo sapiens, UniProt P35790); experiment: Enzymatic activity of recombinant choline kinase isoforms in E. coli extracts; format: biochemical; details: recombinant isoforms expressed in E. coli
# T1 construct: made in house; host or cells: E. coli
# T1 sequence (P35790 whole entry, canonical isoform): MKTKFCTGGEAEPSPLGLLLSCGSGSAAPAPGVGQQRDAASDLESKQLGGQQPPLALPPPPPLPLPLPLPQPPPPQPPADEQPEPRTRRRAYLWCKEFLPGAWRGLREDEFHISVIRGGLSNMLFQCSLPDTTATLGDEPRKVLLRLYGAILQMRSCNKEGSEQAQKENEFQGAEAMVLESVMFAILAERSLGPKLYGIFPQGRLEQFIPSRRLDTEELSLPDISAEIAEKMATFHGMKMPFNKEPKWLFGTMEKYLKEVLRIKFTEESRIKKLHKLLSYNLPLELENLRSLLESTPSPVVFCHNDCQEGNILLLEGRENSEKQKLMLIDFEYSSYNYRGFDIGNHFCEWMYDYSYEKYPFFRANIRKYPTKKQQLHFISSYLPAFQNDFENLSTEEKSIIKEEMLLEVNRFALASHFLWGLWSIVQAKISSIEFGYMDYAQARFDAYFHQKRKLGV
# Protocol: FIG. 9: Specificity of the inhibitor MN58b on choline kinase alpha. E. coil extracts in which recombinant human choline kinase alpha or choline kinase beta proteins are expressed were analyzed in the absence (0) or in the presence of increasing concentrations of MN58b.
# Once the oncogenic activity of the choline kinase alpha isoform, as well as its high incidence of overexpression in human tumors was verified, it was then studied if the anti-tumor effect of the inhibitor MN58b [Hernández-Alcoceba, R., Saniger, L., Campos, J., Núñdez, M. C., Khaless, F., Gallo, M. Á., Espinosa, A., Lacal, J. C. Oncogene, 15, 2289-2301 (1997); Hernández-Alcoceba, R., Fernández, F., Lacal J. C. Cancer Res. 55, 3112-3118 (1999); Ramirez de Molina A., Bañez-Coronel M., Gutiérrez R., Rodriguez González A., Olmeda D., Megias D., Lacal J. C. Cancer Res. 64:6732-6739 (2004)] is specific for this choline kinase alpha isoform or if, in contrast, it could also be attributed to its possible interaction with the choline kinase beta isoform. This verification is necessary because the two choline kinase alpha and choline kinase beta isoforms share up to 75% homology in the substrate binding domains and in the catalytic region. […]
# [2] = tested on: H460; experiment: Antiproliferative effect of ChoK inhibition, NSCLC line; format: cell-based, human; details: for IC50: H460 (NSCLC); for sensitivity of the cell compared with the primary cells: number in parentheses
# Protocol: (§1) First, the mRNA levels corresponding to said enzyme in cell lines derived from patients with lung cancer were detected again by means of automated real-time quantitative PCR reactions with specific Taqman probes. They were carried out both on cell lines corresponding to the most common type of lung cancer (75-85%), non-microcytic or NSCLC (non small cell lung cancer), represented by lines H460 and H1299, and on lines corresponding to the other type of cancer, microcytic or SCLC (small cell lung cancer), represented by lines H510 and H82, the data being represented in logarithmic scale relating to normal primary human bronchial epithelial cells, BEC. […] An increase with respect to the controls, which is particularly considerable in the case of the SCLC lines, especially H510, is observed in all cases.
# (§2) The antiproliferative effect of ChoK inhibition in said cell lines caused by the addition of MN58b was also checked, obtaining the results shown in the following Table, in which the numbers between parentheses indicate the sensitivity of each cell compared with the primary cells. The differences between the primary cells and the four cell lines derived from tumors were significant (p:<0.001) in all the analyzed time periods.
# [3] = tested on: H1299; experiment: as above; format: cell-based, human; details: for IC50: H1299 (NSCLC); for sensitivity of the cell compared with the primary cells: number in parentheses
# Protocol: as §1, §2
# [4] = tested on: Ch-ind-1 cells; experiment: Proliferation of inducible interference line with chemical ChoK inhibitors; format: cell-based, human; details: Ch-ind-1, analogous to parent MDA-MB-231
# Excerpt: FIG. 23: Proliferation of MDA-MB-231 (upper row of plaques) and Ch-ind-1 (lower row of plaques) cells in growth permissive conditions (“Control” column? or in the presence of the chemical inhibitors of choline kinase MN58b (middle column) or RSM936 (right column).
# FIGS. 23 and 24 show the results obtained in Ch-ind-1 cells, a cell line derived from MDA-MB-231, capable of expressing the interference construction after treatment with the inducing agent doxocycline. […] The genetic inhibition of ChoKα is correlated with a reduction of cell proliferation (determined by pCNA) and an increase of cell death due to apoptosis (determined by PARPdig, degraded PARP protein, which is an indicator of apoptosis). The effect begins to be seen after 10 days, although it is still very initial, and is much more pronounced 20 days after the beginning of the experiment (in which the population has very little ChoKα expression).
# [5] = tested on: HMEC; details: cited from earlier work
# [6] = tested on: MDA-MB-231; details: MDA-MB-231, previously described; cited from earlier work
# [7] = tested on: H510; experiment: Antiproliferative effect of ChoK inhibition, SCLC line; format: cell-based, human; details: for IC50: H510 (SCLC); for sensitivity of the cell compared with the primary cells: number in parentheses
# Protocol: as §1, §2
# [8] = tested on: H82; experiment: as above; format: cell-based, human; details: for IC50: H82 (SCLC); for sensitivity of the cell compared with the primary cells: number in parentheses
# Protocol: as §1, §2
# [9] = tested on: HEK293T cells transfected with the cka gene; experiment: Growth of tumors induced by choline kinase alpha overexpression in Nu/Nu mice; format: in vivo; details: 5 mg/Kg intraperitoneally, 5 consecutive days with 9 days of rest
# Protocol: Given that tumors have been generated in vivo by overexpressing choline kinase alpha and that MN58b is specific for this isoform, it has been verified if the growth of the tumors induced by ChoKα is susceptible to inhibition by MN58b. […] When the tumors reached a tumor volume of 0.1 cm^3, treatment with the specific choline kinase alpha inhibitor, MN58b, began, which was administered intraperitoneally in sterile physiological serum for 5 consecutive days with 9 days of rest at a dose of 5 mg/Kg. The control mice received equivalent carrier doses, following the same calendar and the tumors were monitored at least twice a week.
# [10] = tested on: HMEC; experiment: Antiproliferative effect of ChoK inhibition, primary mammary epithelial cells; format: cell-based, human
# Excerpt: as §2
# [11] = tested on: BEC; experiment: Antiproliferative effect of ChoK inhibition, primary bronchial epithelial cells; format: cell-based, human
# Protocol: as §1, §2
substance,measurement,setting,value
MN58b,times more active against choline kinase alpha than against choline kinase beta,[1],20 times
same,IC50,"[2]; 48 h, read-out: 48 h IC50",7030 ± 2030 nM
same,IC50,"[2]; 72 h, read-out: 72 h IC50",2600 ± 800 nM
same,IC50,"[2]; 114 h, read-out: 114 h IC50",1100 ± 100 nM
same,sensitivity of the cell compared with the primary cells,"[2]; H460, 48 h",6
same,sensitivity of the cell compared with the primary cells,"[2]; H460, 72 h",8
same,sensitivity of the cell compared with the primary cells,"[2]; H460, 114 h",3
same,IC50,"[3]; 48 h, read-out: 48 h IC50",10300 ± 2500 nM
same,IC50,"[3]; 72 h, read-out: 72 h IC50",2700 ± 700 nM
same,IC50,"[3]; 114 h, read-out: 114 h IC50",900 ± 100 nM
same,sensitivity of the cell compared with the primary cells,"[3]; H1299, 48 h",4
same,sensitivity of the cell compared with the primary cells,"[3]; H1299, 72 h",8
same,sensitivity of the cell compared with the primary cells,"[3]; H1299, 114 h",4
same,sensitivity of proliferation to chemical inhibition of ChoKα,[4],sensitive to the chemical inhibition
same,cell fate of primary cells after treatment,[5]; HMEC treated with the inhibitor,cycle-arrested
same,effect on the viability of normal primary cells,"[5]; HMEC, chemical inhibitor",no effect on the viability
same,anti-tumor effect of pharmacological inhibition of choline kinase,[6],strong anti-tumor effect due to apoptosis induction
same,IC50,"[7]; 48 h, read-out: 48 h IC50",1100 ± 100 nM
same,IC50,"[7]; 72 h, read-out: 72 h IC50",400 ± 50 nM
same,IC50,"[7]; 114 h, read-out: 114 h IC50",100 ± 30 nM
same,sensitivity of the cell compared with the primary cells,"[7]; H510, 48 h",41
same,sensitivity of the cell compared with the primary cells,"[7]; H510, 72 h",53
same,sensitivity of the cell compared with the primary cells,"[7]; H510, 114 h",27
same,IC50,"[8]; 48 h, read-out: 48 h IC50",1900 ± 200 nM
same,IC50,"[8]; 72 h, read-out: 72 h IC50",800 ± 40 nM
same,IC50,"[8]; 114 h, read-out: 114 h IC50",270 ± 10 nM
same,sensitivity of the cell compared with the primary cells,"[8]; H82, 48 h",24
same,sensitivity of the cell compared with the primary cells,"[8]; H82, 72 h",27
same,sensitivity of the cell compared with the primary cells,"[8]; H82, 114 h",12
same,tumor growth reduction,[9],80%
same,IC50,"[10]; 48 h, read-out: 48 h IC50",44700 ± 4950 nM
same,IC50,"[10]; 72 h, read-out: 72 h IC50",20900 ± 2700 nM
same,IC50,"[10]; 114 h, read-out: 114 h IC50",3400 ± 130 nM
same,IC50,"[11]; 48 h, read-out: 48 h IC50",40500 ± 6200 nM
same,IC50,"[11]; 72 h, read-out: 72 h IC50",18300 ± 4800 nM
same,IC50,"[11]; 114 h, read-out: 114 h IC50",4200 ± 800 nM
